Test results reported in US20240335462A1, “SULFUR/PHOSPHORUS-CONTAINING ARYL COMPOUND AND APPLICATION THEREOF” (MEDSHINE DISCOVERY INC., priority 2021, published 2024).
Like-named read-outs stand apart in the source and are kept apart here.

What was measured:
[1] = tested on: JAK2/2 signaling pathway (TPO/pSTAT5); experiment: TPO-induced STAT phosphorylation in human platelet-rich plasma; format: cell-based
Experimental: (§1) The purpose of this experiment was to detect the inhibitory effect of the compound on the JAK-STAT signaling pathway activated by cytokines in human whole blood or platelet-rich plasma. Fresh human whole blood/platelets were placed in a 96-well plate. The test compound was added and incubated for 1 hour, followed by stimulation with various cytokines. The corresponding STAT phosphorylation levels in different cell populations were analyzed using flow cytometer by means of surface antibody staining and intracellular phosphorylated antibody staining. The experiments using the cytokines IFN-α, […] as stimulants were conducted in human whole blood, whereas the experiment using the cytokine TPO as a stimulant was conducted in platelet-rich plasma.
• a) Fresh blood from volunteers was collected using EDTA anticoagulant tubes and centrifuged at 200 g for 20 minutes to prepare platelet-rich plasma (PRP). • b) 90 μL per well of PRP was rapidly seeded into a 96-well plate and incubated in a cell culture incubator for 15 minutes. […] The plate was then incubated in the incubator for 15 minutes. • d) After incubation, the plate was centrifuged at 1000×g for 10 minutes, then the supernatant was discarded, and the cells were washed twice with 200 μL of PBS. • e) PE-anti-human CD61 antibody was added to each well, followed by incubation at room temperature for 40 minutes. • f) After incubation, the plate was centrifuged at 1000×g for 10 minutes, then the supernatant was discarded, and the cells were washed twice with 200 μL of PBS. • g) The cells were resuspended in 200 μL of pre-cooled Perm Buffer III and permeabilized on ice for 60 minutes. • h) The plate was centrifuged at 1000×g for 10 minutes, then the supernatant was discarded, and the cells were washed twice with pre-cooled PBS. • i) Intracellular anti-pSTAT5 phosphorylated antibody was added thereto, followed by incubation at room temperature for 60 minutes. • j) The cells were washed twice with PBS and resuspended in 200 μL of PBS, and then detected using the CytoFlex S flow cytometer. […]

[2] = Pharmacokinetic testing in mice; format: in vivo, male CD-1 mice; settings: mouse; for C0: read-out: Starting concentration C0; for Cmax: read-out: Peak concentration Cmax; for Vd: read-out: Apparent volume of distribution Vd; for AUC(0-t): read-out: Area under the curve AUC0-last; for half-life: read-out: Half-life T1/2 (converted); for bioavailability: read-out: Bioavailability F %; for Tmax: read-out: Time to peak concentration Tmax
Experimental: The objective was to study the pharmacokinetic behavior of the compound of the present disclosure in mice and evaluate the pharmacokinetic characteristics, using male CD-1 mice aged 7 to 9 weeks as test animals. The drug concentrations in plasma at different time points after a single intravenous injection (IV) and oral administration (PO) of the compound were determined using LC/MS/MS.
The pharmacokinetic characteristics of the compound in rodents following intravenous injection and oral administration were tested using a standard protocol. Test animals were fasted for 10 to 14 hours before administration and allowed to feed 4 hours post-administration. The compound was prepared into a clear solution with the appropriate solvent for both IV (intravenous injection) and PO (oral gavage) administration. The solvent was 10% DMSO+10% solutol+80% (10% HP-β-CD aqueous solution). Whole blood samples were collected within 24 hours, centrifuged at 6000 g for 3 minutes, and the supernatant was separated to obtain plasma samples. Protein precipitation was performed by adding four times the volume of acetonitrile solution containing internal standard to the plasma samples. After centrifugation, the supernatant was added with an equal volume of water and then centrifuged before being subjected to LC-MS/MS analysis for quantifying plasma drug concentration. Pharmacokinetic parameters such as peak concentration, time to peak concentration, clearance, half-life, area under the drug-time curve, and bioavailability were calculated.

[3] = tested on: JAK1/2 signaling pathway (IL-6/pSTAT3); experiment: IL-6-induced STAT phosphorylation in human whole blood; format: cell-based
Experimental: as §1
• a) Fresh blood from volunteers was collected using EDTA anticoagulant tubes. • b) 90 μL per well of whole blood was rapidly seeded into a 96-well plate and incubated in a cell culture incubator for 15 minutes. […] The plate was centrifuged at 500×g for 8 minutes, and the supernatant was discarded. • g) The cell pellet was washed once with pre-cooled PBS. • h) After discarding the supernatant, anti-human CD3 antibody was added thereto, followed by incubation at room temperature for 40 minutes. • i) The plate was centrifuged at 500×g for 8 minutes, then the supernatant was discarded, and the cells were washed twice with 200 μL of pre-cooled PBS. • j) The cells were resuspended in 200 μL of pre-cooled Perm Buffer III per well and permeabilized on ice for 60 minutes. • k) The plate was centrifuged at 600×g for 8 minutes, then the supernatant was discarded, and the cells were washed twice with pre-cooled PBS. • l) Intracellular staining with anti-pSTAT5 antibody was carried out, followed by incubation at room temperature for 60 minutes. • m) The cells were centrifuged at 600×g for 8 minutes, washed twice with PBS, resuspended in 200 μL of PBS, and detected using the CytoFlex S flow cytometer. • n) Data analysis was conducted using FlowJo and GraphPad Prism 8 software.
Data were analyzed using FlowJo software. […]

[4] = male, CD-1, plasma, PO 10 mg/kg

Row | SMILES | IC50 [1] [µM] | Apparent clearance Cl ([2]; IV 3 mg/kg) [mL/min/kg] | Apparent volume of distribution Vd ([2]; IV 3 mg/kg) [L/kg] | Area under the curve AUC0-last ([2]; IV 3 mg/kg) [µM·h] | Half-life T1/2 ([2]; IV 3 mg/kg) [min] | C0 ([2]; IV 3 mg/kg) [µM] | Area under the curve AUC0-last ([2]; PO 10 mg/kg) [µM·h] | Bioavailability F % ([2]; PO 10 mg/kg) [%] | Time to peak concentration Tmax ([2]; PO 10 mg/kg) [min] | Cmax ([2]; PO 10 mg/kg) [µM] | IC50 [3] [µM] | Vd ([2]; male, CD-1, plasma, IV 3 mg/kg) [L/kg] | AUC(0-t) ([2]; male, CD-1, plasma, IV 3 mg/kg) [µM·h] | half-life ([2]; male, CD-1, plasma, IV 3 mg/kg) [min] | C0 ([2]; male, CD-1, plasma, IV 3 mg/kg) [µM] | AUC(0-t) [2, 4] [µM·h] | bioavailability [2, 4] [%] | Cmax [2, 4] [µM] | Tmax [2, 4] [min]
1 | CNC(=O)c1nnc(NC(=O)C2CC2)cc1Nc1cccc(-c2ncc(S(=N)(=O)C(C)C)cn2)c1OC (single isomer, unassigned) [WX-011A] | > 100 | 14.1 | 0.8 | 6.908 | 252 | 9.92 | 26.715 | 51 | 18 | 16.8 | 10.8 | – | – | – | – | – | – | – | –
2 | CNC(=O)c1cnc(NC(=O)C2CC2)cc1Nc1cccc(-c2ccc(S(=O)(=O)C(C)C)cn2)c1OC.Cl [Hydrochloride of WX-020] | – | 7.0 | 1.1 | 14.13 | 138 | 8.04 | 56.784 | 121 | 30 | 15.5 | – | – | – | – | – | – | – | – | –
3 | CNC(=O)c1cnc(NC(=O)C2CC2)cc1Nc1cccc(-c2ncc(S(=O)(=O)C(C)C)cn2)c1OC [WX-019] | > 100 | 4.7 | – | – | – | – | – | – | – | – | 33.9 | 0.4 | 21 | 66 | 16.3 | 61.2 | 87 | 17.3 | 48
4 | CNC(=O)c1cnc(NC(=O)C2CC2)cc1Nc1cccc(-c2ccc(S(=O)(=O)C(C)C)cn2)c1OC [WX-020] | > 100 | – | – | – | – | – | – | – | – | – | > 100 | – | – | – | – | – | – | – | –
5 | CNC(=O)c1nnc(NC(=O)C2CC2)cc1Nc1cccc(-c2ccc(P(=O)(C3CC3)C3CC3)cn2)c1OC [WX-021] | – | 8.5 | – | – | – | – | – | – | – | – | – | 0.9 | 11.9 | 174 | 9.89 | 20.7 | 52 | 11.3 | 18
